The values that follow come from US20130190289A1, “COMPOUNDS AND METHODS FOR THE TREATMENT OR PREVENTION OF FLAVIVIRUS INFECTIONS” (priority 2010, published 2013).

Data set [1] can be described thus: [3H]Thymidine incorporation assay (cell toxicity). As to conditions: human. Background: Incorporation of labelled thymidine or its analogues reports DNA synthesis.
In data set [2] the test system is HCV replicon (genotype 1b) in Huh7 cell line ET. As to the kind of experiment: microbe, parasite or virus in culture. It is filed as cell-based, HCV genotype 1b. As to conditions: Hepatitis C virus, Huh-7, read-out: HCV-Replicon-(Luci-ET) 1b_IC50.

As usually defined, the CC50 is the concentration at which the toxic effect on the cells reaches its halfway point. Low values mean greater toxicity to the cells, high ones lower toxicity to the cells. The compound `CC(C(=O)N(C)C)N(c1cc(C#CC(C)(C)C)sc1C(=O)O)C(=O)[C@H]1CC[C@H](C)CC1` (relative stereo) [Compound 7, 5-(3,3-Dimethyl-but-1-ynyl)-3-[(1-dimethylcarbamoyl-ethyl)-(trans-4-methyl-cyclohexanecarbonyl)-amino]-thiophene-2-carboxylic acid] registered a CC50 at 72 h in data set [1] of 10 to 100 µM. The IC50 in data set [2] was less than 0.1 µM. For `CC(CC(=O)N(C)C)N(c1cc(C#CC(C)(C)C)sc1C(=O)O)C(=O)[C@H]1CC[C@H](C)CC1` (relative stereo) [Compound 99, 3-[[3-(Dimethylamino)-1-methyl-3-oxo-propyl]-(trans-4-methylcyclohexanecarbonyl)amino]-5-(3,3-dimethylbut-1-ynyl)thiophene-2-carboxylic acid], in data set [1], the cytotoxic concentration (CC50) at 72 h is 10 to 100 µM. For the same compound, in data set [2], the IC50 is less than 0.1 µM. For the compound `CC(CC(=O)N1CCCC1)N(c1cc(C#CC(C)(C)C)sc1C(=O)O)C(=O)[C@H]1CC[C@H](C)CC1` (relative stereo) [Compound 101, 5-(3,3-dimethylbut-1-yn-1-yl)-3-((trans)-4-methyl-N-(4-oxo-4-(pyrrolidin-1-yl)butan-2-yl)cyclohexanecarboxamido)thiophene-2-carboxylic acid], the CC50 at 72 h in data set [1] lay in the range of 10 to 100 µM. In addition, the IC50 in data set [2] is less than 0.1 µM. The compound `CC(CN(c1cc(C#CC(C)(C)C)sc1C(=O)O)C(=O)[C@H]1CC[C@H](C)CC1)C(=O)N1CCOCC1` (relative stereo) [Compound 104, 5-(3,3-Dimethylbut-1-ynyl)-3-[(trans-4-methylcyclohexanecarbonyl)-(2-methyl-3-morpholino-3-oxo-propyl)amino]thiophene-2-carboxylic acid] showed a CC50 at 72 h in data set [1] of more than 100 µM. For the same compound, the IC50 in data set [2] is less than 0.1 µM. On the same counts, the results for `CN1CC(N(c2cc(C#CC(C)(C)C)sc2C(=O)O)C(=O)[C@H]2CC[C@H](C)CC2)CC1=O` (relative stereo) [Compound 107, 5-(3,3-Dimethylbut-1-ynyl)-3-[(trans-4-methylcyclohexanecarbonyl)-(1-methyl-5-oxo-pyrrolidin-3-yl)amino]thiophene-2-carboxylic acid] are more than 100 µM and less than 0.1 µM. In data set [1], `CC1CCC(C(=O)N(c2cc(C#CC(C)(C)C)sc2C(=O)O)[C@@H]2CCN(C)C2=O)CC1` (single isomer, unassigned) [Compound 92] showed a CC50 at 72 h of more than 100 µM. For the same compound, the IC50 in data set [2] is less than 0.1 µM. Compound `CNC(=O)CN(c1cc(C#CC(C)(C)C)sc1C(=O)O)C(=O)[C@H]1CC[C@H](C)CC1` [Compound 1, 5-(3,3-dimethylbut-1-ynyl)-3-[[2-(methylamino)-2-oxo-ethyl]-(trans-4-methylcyclohexanecarbonyl)amino]thiophene-2-carboxylic acid] returned a CC50 at 72 h in data set [1] of 10 to 100 µM. In addition, the IC50 in data set [2] was less than 0.1 µM. On to `C[C@H](C(=O)N(C)C)N(c1cc(C#CC(C)(C)C)sc1C(=O)O)C(=O)[C@H]1CC[C@H](C)CC1` [Compound 2, 5-(3,3-Dimethyl-but-1-ynyl)-3-[((R)-1-dimethylcarbamoyl-ethyl)-(trans-4-methyl-cyclohexanecarbonyl)-amino]-thiophene-2-carboxylic acid], for which the CC50 at 72 h in data set [1] was 10 to 100 µM. Further, in data set [2], the IC50 is less than 0.1 µM.

In turn, `CCN(CC)C(=O)[C@H](C)N(c1cc(C#CC(C)(C)C)sc1C(=O)O)C(=O)[C@H]1CC[C@H](C)CC1` [Compound 8, 3-[[(1S)-2-(diethylamino)-1-methyl-2-oxo-ethyl]-(trans-4-methylcyclohexanecarbonyl)amino]-5-(3,3-dimethylbut-1-ynyl)thiophene-2-carboxylic acid] returned a CC50 at 72 h in data set [1] of more than 100 µM. Also, the IC50 in data set [2] is less than 0.1 µM. `C[C@@H](C(=O)N1CCCC1)N(c1cc(C#CC(C)(C)C)sc1C(=O)O)C(=O)[C@H]1CC[C@H](C)CC1` [Compound 9, 5-(3,3-Dimethylbut-1-ynyl)-3-[(trans-4-methylcyclohexanecarbonyl)-[(1S)-1-methyl-2-oxo-2-pyrrolidin-1-yl-ethyl]amino]thiophene-2-carboxylic acid] returned a CC50 at 72 h in data set [1] of more than 100 µM. Moreover, the IC50 in data set [2] was less than 0.1 µM.

`C[C@@H](C(=O)NC1CCCC1)N(c1cc(C#CC(C)(C)C)sc1C(=O)O)C(=O)[C@H]1CC[C@H](C)CC1` [Compound 18, 3-[[(1S)-2-(Cyclopentylamino)-1-methyl-2-oxo-ethyl]-(trans-4-methylcyclohexanecarbonyl)amino]-5-(3,3-dimethylbut-1-ynyl)thiophene-2-carboxylic acid]: in data set [1], the half-maximal cytotoxic concentration (CC50) at 72 h was in the range of 10 to 100 µM. In addition, the IC50 in data set [2] is less than 0.1 µM. On the same counts, the results for `C[C@@H](C(=O)NC1CCOCC1)N(c1cc(C#CC(C)(C)C)sc1C(=O)O)C(=O)[C@H]1CC[C@H](C)CC1` [Compound 19, 5-(3,3-Dimethylbut-1-ynyl)-3-[(trans-4-methylcyclohexanecarbonyl)-[(1S)-1-methyl-2-oxo-2-(tetrahydropyran-4-ylamino)ethyl]amino]thiophene-2-carboxylic acid] are more than 100 µM and less than 0.1 µM. `C[C@@H](C(=O)N1CCC(O)CC1)N(c1cc(C#CC(C)(C)C)sc1C(=O)O)C(=O)[C@H]1CC[C@H](C)CC1` [Compound 20, 5-(3,3-Dimethylbut-1-ynyl)-3-[[(1S)-2-(4-hydroxy-1-piperidyl)-1-methyl-2-oxo-ethyl]-(trans-4-methylcyclohexanecarbonyl)amino]thiophene-2-carboxylic acid] came in with a CC50 at 72 h in data set [1] of more than 100 µM. Besides, the IC50 in data set [2] is less than 0.1 µM. In the same order, the values of `COC[C@H](C(=O)N(C)C)N(c1cc(C#CC(C)(C)C)sc1C(=O)O)C(=O)[C@H]1CC[C@H](C)CC1` [Compound 22, 3-[[(1R)-2-(dimethylamino)-1-(methoxymethyl)-2-oxo-ethyl]-(trans-4-methylcyclohexanecarbonyl)amino]-5-(3,3-dimethylbut-1-ynyl)thiophene-2-carboxylic acid] are more than 100 µM and less than 0.1 µM. Regarding `COC[C@@H](C(=O)N1CCOCC1)N(C(=O)C1CCCCC1)c1cc(C#CC(C)(C)C)sc1C(=O)O` [Compound 24, 3-[Cyclohexanecarbonyl-[(1S)-1-(methoxymethyl)-2-morpholino-2-oxo-ethyl]amino]-5-(3,3-dimethylbut-1-ynyl)thiophene-2-carboxylic acid], the CC50 at 72 h in data set [1] is more than 100 µM. The IC50 in data set [2] was less than 0.1 µM.

On to `CN(C)CCN(C)C(=O)CN(c1cc(C#CC(C)(C)C)sc1C(=O)O)C(=O)[C@H]1CC[C@H](C)CC1` [Compound 118, 3-[[2-[2-Dimethylaminoethyl(methyl)amino]-2-oxo-ethyl]-(trans-4-methylcyclohexanecarbonyl)amino]-5-(3,3-dimethylbut-1-ynyl)thiophene-2-carboxylic acid], for which, in data set [2], the IC50 is less than 0.1 µM.

Turning to `CN1CCN(C(=O)CN(c2cc(C#CC(C)(C)C)sc2C(=O)O)C(=O)[C@H]2CC[C@H](C)CC2)CC1` [Compound 119, 5-(3,3-dimethylbut-1-ynyl)-3-[(trans-4-methylcyclohexanecarbonyl)-[2-(4-methylpiperazin-1-yl)-2-oxo-ethyl]amino]thiophene-2-carboxylic acid], the IC50 in data set [2] is less than 0.1 µM. Same read-out and setting: for `CC(C)(C)C#Cc1cc(N(C(=O)[C@H]2CC[C@H](C)CC2)[C@H]2CCNC2=O)c(C(=O)O)s1` [Compound 120, 5-(3,3-dimethylbut-1-ynyl)-3-[(trans-4-methylcyclohexanecarbonyl)-[(3S)-2-oxopyrrolidin-3-yl]amino]thiophene-2-carboxylic acid] the value was 0.1 to 1 µM.
